ChEMBL document CHEMBL1142897, “Synthesis, characterization and antimicrobial activity of Fe(II), Zn(II), Cd(II) and Hg(II) complexes with 2,6-bis(benzimidazol-2-yl) pyridine ligand” (2007)

Experiments:
Listeria monocytogenes [1] = assay: Antibacterial activity against Listeria monocytogenes after 72 hrs by disk diffusion method; type: functional
[2] = test system: Mycolicibacterium smegmatis; assay: Antibacterial activity against Mycobacterium smegmatis after 72 hrs by disk diffusion method; type: functional
Klebsiella pneumoniae [3] = assay: Antibacterial activity against Klebsiella pneumoniae after 72 hrs by disk diffusion method; type: functional
Pseudomonas aeruginosa [4] = assay: Antibacterial activity against Pseudomonas aeruginosa after 72 hrs by disk diffusion method; type: functional
Micrococcus luteus [5] = assay: Antibacterial activity against Micrococcus luteus after 72 hrs by disk diffusion method; type: functional
Proteus vulgaris [6] = assay: Antibacterial activity against Proteus vulgaris after 72 hrs by disk diffusion method; type: functional
Bacillus cereus [7] = assay: Antibacterial activity against Bacillus cereus after 72 hrs by disk diffusion method; type: functional
Escherichia coli [8] = assay: Antibacterial activity against Escherichia coli after 72 hrs by disk diffusion method; type: functional
Staphylococcus aureus [9] = assay: Antibacterial activity against Staphylococcus aureus after 72 hrs by disk diffusion method; type: functional
Debaryomyces hansenii [10] = assay: Antifungal activity against Debaryomyces hansenii after 24 hrs by disk diffusion method; type: functional
[11] = test system: Hanseniaspora guilliermondii; assay: Antifungal activity against Hanseniaspora guilliermondii after 24 hrs by disk diffusion method; type: functional
Rhodotorula mucilaginosa [12] = assay: Antifungal activity against Rhodotorula rubra after 24 hrs by disk diffusion method; type: functional
Kluyveromyces marxianus [13] = assay: Antifungal activity against Kluyveromyces fragilis after 24 hrs by disk diffusion method; type: functional
Candida albicans [14] = assay: Antifungal activity against Candida albicans after 24 hrs by disk diffusion method; type: functional
Rhodotorula mucilaginosa [15] = assay: Antifungal activity against Rhodotorula rubra after 24 hrs by dilution method; type: functional, organism-based
Kluyveromyces marxianus [16] = assay: Antifungal activity against Kluyveromyces fragilis after 24 hrs by dilution method; type: functional, organism-based
[17] = test system: Hanseniaspora guilliermondii; assay: Antifungal activity against Hanseniaspora guilliermondii after 24 hrs by dilution method; type: functional, organism-based
Debaryomyces hansenii [18] = assay: Antifungal activity against Debaryomyces hansenii after 24 hrs by dilution method; type: functional, organism-based
Candida albicans [19] = assay: Antifungal activity against Candida albicans after 24 hrs by dilution method; type: functional, organism-based
Proteus vulgaris [20] = assay: Antibacterial activity against Proteus vulgaris after 24 hrs by dilution method; type: functional, organism-based
[21] = test system: Mycolicibacterium smegmatis; assay: Antibacterial activity against Mycobacterium smegmatis after 24 hrs by dilution method; type: functional, organism-based
Pseudomonas aeruginosa [22] = assay: Antibacterial activity against Pseudomonas aeruginosa after 24 hrs by dilution method; type: functional, organism-based
Staphylococcus aureus [23] = assay: Antibacterial activity against Staphylococcus aureus after 24 hrs by dilution method; type: functional, organism-based
Micrococcus luteus [24] = assay: Antibacterial activity against Micrococcus luteus after 24 hrs by dilution method; type: functional, organism-based
Bacillus cereus [25] = assay: Antibacterial activity against Bacillus cereus after 24 hrs by dilution method; type: functional, organism-based
Escherichia coli [26] = assay: Antibacterial activity against Escherichia coli after 24 hrs by dilution method; type: functional, organism-based
Klebsiella pneumoniae [27] = assay: Antibacterial activity against Klebsiella pneumoniae after 24 hrs by dilution method; type: functional, organism-based
Listeria monocytogenes [28] = assay: Antibacterial activity against Listeria monocytogenes after 24 hrs by dilution method; type: functional, organism-based

Compound | inhibition zone (IZ) (Listeria monocytogenes [1]) [mm] | inhibition zone (IZ) [2] [mm] | inhibition zone (IZ) (Klebsiella pneumoniae [3]) [mm] | inhibition zone (IZ) (Pseudomonas aeruginosa [4]) [mm] | inhibition zone (IZ) (Micrococcus luteus [5]) [mm] | inhibition zone (IZ) (Proteus vulgaris [6]) [mm] | inhibition zone (IZ) (Bacillus cereus [7]) [mm] | inhibition zone (IZ) (Escherichia coli [8]) [mm] | inhibition zone (IZ) (Staphylococcus aureus [9]) [mm] | inhibition zone (IZ) (Debaryomyces hansenii [10]) [mm] | inhibition zone (IZ) [11] [mm] | inhibition zone (IZ) (Rhodotorula mucilaginosa [12]) [mm] | inhibition zone (IZ) (Kluyveromyces marxianus [13]) [mm] | further results
CO/N=C(\C(=O)N[C@@H]1C(=O)N2C(C(=O)O)=C(COC(C)=O)CS[C@H]12)c1csc(N)n1 [CEFOTAXIME] | 16 | 11 | 13 | 54 | 32 | 18 | 14 | 10 | 12 | – | – | – | – | –
CC1(C)S[C@@H]2[C@H](NC(=O)[C@H](N)c3ccccc3)C(=O)N2[C@H]1C(=O)O [AMPICILLIN] | 12 | 21 | 14 | 10 | 32 | 16 | 12 | 12 | 16 | – | – | – | – | –
CN[C@H](CC(C)C)C(=O)N[C@H]1C(=O)N[C@@H](CC(N)=O)C(=O)N[C@H]2C(=O)N[C@H]3C(=O)N[C@H](C(=O)N[C@H](C(=O)O)c4cc(O)cc(O)c4-c4cc3ccc4O)[C@H](O)c3ccc(c(Cl)c3)Oc3cc2cc(c3O[C@@H]2O[C@H](CO)[C@@H](O)[C@H](O)[C@H]2O[C@H]2C[C@](C)(N)[C@H](O)[C@H](C)O2)Oc2ccc(cc2Cl)[C@H]1O [VANCOMYCIN] | 26 | 20 | 22 | 10 | 34 | 20 | 18 | 22 | 13 | – | – | – | – | –
CC1COc2c(N3CCN(C)CC3)c(F)cc3c(=O)c(C(=O)O)cn1c23 (configuration not stated) [OFLOXACIN] | 30 | 32 | 28 | 44 | 28 | 28 | 30 | 30 | 24 | – | – | – | – | –
Clc1ccccc1C(c1ccccc1)(c1ccccc1)n1ccnc1 [CLOTRIMAZOLE] | – | – | – | – | – | – | – | – | – | 18 | 22 | 16 | 18 | inhibition zone (IZ) (Candida albicans [14]): 15 mm
CC(=O)N1CCN(c2ccc(OCC3COC(Cn4ccnc4)(c4ccc(Cl)cc4Cl)O3)cc2)CC1 (configuration not stated) [KETOCONAZOLE] | – | – | – | – | – | – | – | – | – | 14 | 24 | 22 | 16 | inhibition zone (IZ) (Candida albicans [14]): 21 mm
NYSTATIN | – | – | – | – | – | – | – | – | – | 16 | 21 | 18 | 18 | MIC (Rhodotorula mucilaginosa [15]): 6.25 mg/L; MIC (Kluyveromyces marxianus [16]): 6.25 mg/L; MIC [17]: 3.12 mg/L; MIC (Debaryomyces hansenii [18]): 12.5 mg/L; MIC (Candida albicans [19]): 3.12 mg/L
CN(C)[C@@H]1C(O)=C(C(N)=O)C(=O)[C@@]2(O)C(O)=C3C(=O)c4c(O)cccc4[C@@](C)(O)[C@H]3C[C@@H]12 [TETRACYCLINE] | 28 | 24 | 30 | 34 | 22 | 26 | 25 | 28 | 26 | – | – | – | – | –
GENTAMICIN | – | – | – | – | – | – | – | – | – | – | – | – | – | MIC (Proteus vulgaris [20]): 6.25 mg/L; MIC [21]: 12.5 mg/L; MIC (Pseudomonas aeruginosa [22]): 6.25 mg/L; MIC (Staphylococcus aureus [23]): 25 mg/L; MIC (Micrococcus luteus [24]): 25 mg/L; MIC (Bacillus cereus [25]): 6.25 mg/L; MIC (Escherichia coli [26]): 6.25 mg/L; MIC (Klebsiella pneumoniae [27]): 6.25 mg/L; MIC (Listeria monocytogenes [28]): 12.5 mg/L
CC1(C)S[C@@H]2[C@H](NC(=O)Cc3ccccc3)C(=O)N2[C@H]1C(=O)O [PENICILLIN G] | 10 | 15 | 18 | 8 | 36 | 10 | 14 | 18 | 13 | – | – | – | – | –
